According to ChEMBL document CHEMBL4270488, “Antibacterial Compounds from Marine Bacteria, 2010-2015” (J Nat Prod, 2017):
Values after ≈ are worked out from the molar mass of the structure shown. *1 amine or outer side, *2 acyl side, *3 side chain or, on linkers, in order; H or OH if unused. Where a SMILES comes first, the peptide text is derived from it. Bridges are numbered along the chain shown (N, C = ends). Roman numbers before positions name the chains, in order. [ ]: non-standard residue; d: D form. Actinocin(1to9) = Cc1c2oc3c(C)ccc(C(=O)[*:2])c3nc-2c(C(=O)[*:1])c(N)c1=O; Pro(4-oxo) = O=C1CN[C@H](C(=O)O)C1; NMeV = CN[C@H](C(=O)O)C(C)C; Sar = CNCC(=O)O

Experiments:
[1] = system: Mycobacterium tuberculosis variant bovis; assay: Antibacterial activity against Mycobacterium bovis BCG str. Pasteur 1173P2 incubated for 3 days by GFP based fluorescence assay; format: functional; settings: 72 h
[2] = system: Mycobacterium tuberculosis variant bovis; assay: Antibacterial activity against Mycobacterium bovis BCG str. Pasteur 1173P2 incubated for 16 hrs; format: functional

With Cc1c2oc3c(C)ccc(C(=O)N[C@@H]4C(=O)N[C@H](C(C)C)C(=O)N5CCC[C@H]5C(=O)N(C)CC(=O)N(C)[C@@H](C(C)C)C(=O)O[C@@H]4C)c3nc-2c(C(=O)N[C@@H]2C(=O)N[C@H](C(C)C)C(=O)N3CC(O)C[C@H]3C(=O)N(C)CC(=O)N(C)[C@@H](C(C)C)C(=O)O[C@@H]2C)c(N)c1=O (stereo not given in full) the MIC [1] was 0.2 to 0.5 µg/mL (≈ 0.157 to 0.393 µM).

Work on Cc1c2oc3c(C)ccc(C(=O)N[C@@H]4C(=O)N[C@H](C(C)C)C(=O)N5CCC[C@H]5C(=O)N(C)CC(=O)N(C)[C@@H](C(C)C)C(=O)O[C@@H]4C)c3nc-2c(C(=O)N[C@@H]2C(=O)N[C@H](C(C)C)C(=O)N3CC(=O)C[C@H]3C(=O)N(C)CC(=O)N(C)[C@@H](C(C)C)C(=O)O[C@@H]2C)c(N)c1=O (I: T[dV][Pro(4-oxo)][Sar][NMeV] / II: T[dV]P[Sar][NMeV]; ester I:1-I:C, II:1-II:C; linker I:N-II:N via Actinocin(1to9)) yielded an MIC [1] of 0.2 to 0.5 µg/mL (≈ 0.158 to 0.394 µM).

With COC(=O)N[C@H]1[C@@H](C)O[C@@H](O[C@H]2C/C=C(\C)[C@@H]3C=C[C@@H]4[C@@H](O[C@H]5C[C@@H](O[C@H]6C[C@@H](O)[C@@H](O[C@@H]7C[C@@H](O)[C@@H](OC)[C@H](C)O7)[C@H](C)O6)[C@@H](O)[C@H](C)O5)[C@@H](C)C[C@H](C)[C@H]4[C@]3(C)C(=O)C3=C(O)[C@@]4(C[C@@H](C)C(CO)=C[C@H]4/C=C/2C)OC3=O)C[C@]1(C)[N+](=O)[O-] the MIC [2] was 0.8 to 1.5 µg/mL (≈ 0.674 to 1.26 µM).

With Cc1c2oc3c(C)ccc(C(=O)N[C@@H]4C(=O)N[C@H](C(C)C)C(=O)N5CCC[C@H]5C(=O)N(C)CC(=O)N(C)[C@@H](C(C)C)C(=O)O[C@@H]4C)c3nc-2c(C(=O)N[C@@H]2C(=O)N[C@H](C(C)C)C(=O)N3CCC[C@H]3C(=O)N(C)CC(=O)N(C)[C@@H](C(C)C)C(=O)O[C@@H]2C)c(N)c1=O [DACTINOMYCIN] (I: T[dV]P[Sar][NMeV] / II: T[dV]P[Sar][NMeV]; ester I:1-I:C, II:1-II:C; linker I:N-II:N via Actinocin(1to9)) the MIC [1] was 0.2 to 0.5 µg/mL (≈ 0.159 to 0.398 µM).

With COC(=O)N[C@H]1[C@@H](C)O[C@@H](O[C@H]2C/C=C(\C)[C@@H]3C=C[C@@H]4[C@@H](O[C@H]5C[C@@H](O[C@H]6C[C@@H](O)[C@@H](O[C@@H]7C[C@@H](O)[C@@H](OC)[C@H](C)O7)[C@H](C)O6)[C@@H](O)[C@H](C)O5)[C@@H](C)C[C@H](C)[C@H]4[C@]3(C)C(=O)C3=C(O)[C@@]4(C[C@@H](C)C(CO)=C[C@H]4/C=C/2C)OC3=O)C[C@]1(C)N the MIC [2] was 0.8 to 1.5 µg/mL (≈ 0.691 to 1.3 µM).
